Experimental data: patent US11873298B2, “Compounds and uses thereof” (JANSSEN PHARMACEUTICA NV, priority 2017, dated 2024)

Key:
[1] = target: T1, SCD5 (Homo sapiens, UniProt Q86SK9); experiment: Growth inhibition of humanized yeast strain expressing SCD5 as sole desaturase; format: cell-based
T1 construct: host or cells: S. cerevisiae ole1Δ strain (W303 pdr1Δ pdr3Δ background), plasmid pRS316 with TDH3 promoter and CYC1 terminator
T1 sequence (Q86SK9 1-330): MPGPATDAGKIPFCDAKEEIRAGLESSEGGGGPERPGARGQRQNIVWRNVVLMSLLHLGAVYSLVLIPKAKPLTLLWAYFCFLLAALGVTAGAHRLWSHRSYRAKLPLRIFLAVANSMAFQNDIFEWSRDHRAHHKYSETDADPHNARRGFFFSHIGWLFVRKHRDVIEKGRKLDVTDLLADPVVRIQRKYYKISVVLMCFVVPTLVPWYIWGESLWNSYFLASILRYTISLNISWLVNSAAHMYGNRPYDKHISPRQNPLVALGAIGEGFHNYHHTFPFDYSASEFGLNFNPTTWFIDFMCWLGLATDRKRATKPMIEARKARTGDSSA
Method: (§1) Strain oleΔ (yeast ole1 deletion mutant) was constructed by deleting OLE1 with NAT-MX6 in BY4741, amplifying the deletion cassette from the genomic DNA of the resulting strain with primers flanking the ORF by 1000 bp upstream and downstream, transforming the resulting deletion cassette into W303 pdr1Δ pdr3Δ, and plating transformants on YPD media containing G418 (200 μg/mL) and nourseothricin ([…]) with 0.01% TWEEN®-20 and 0.5 mM oleic and palmitoleic acids.
(§2) The coding sequence of yeast OLE1 was also cloned into this plasmid). These clones were then transformed into the ole1Δ strain and plated on CSM-Ura media (CSM lacking uracil) with 2% glucose (w/v) and independent colonies were isolated and amplified.
(§3) All compound profiling experiments were performed using the same basic protocol. Different genetic backgrounds (e.g., gene deletions) or conditions (e.g., addition of oleic and palmitoleic acid) were replaced as indicated below.
(§4) Yeast were cultured using standard techniques in complete synthetic media (CSM) and yeast nitrogen base supplemented with 2% (w/v) carbon source (glucose, raffinose, or galactose) to regulate the expression of the toxic disease protein. An initial starter culture was inoculated in 3 mL CSM-Glucose media and incubated overnight in a 30° C. shaker incubator (225 rpm). Saturated morning cultures were then diluted 1:20 in fresh CSM-Raffinose media and grown for 6 h to an OD600 (optical density) of ˜0.4-0.8 at 30° C. with shaking.
(§5) Compound administration was performed in two separate steps. First, 15 μL of CSM-Galactose (induces expression of toxic protein) was dispensed into clear 384 well assay plates using a MULTIDROP™ Combi reagent dispenser. […] The cultures described above were then diluted to a 2× concentration (0.03 and 0.08 for alpha-synuclein and ApoE, final ODsoo of 0.015 and 0.04) in CSM-Galactose. For wild-type and Ole1/SCD1/SCD5 plasmid-containing strains, the 2× cell density was 0.02. […] For 96-well assays (FIGS. 1A and 1B), compound dilutions in DMSO were generated in 96 well plates and 1 μL was manually pipetted into 96 well clear bottom assay plates.
(§6) For experiments using a plasmid-borne copy of Ole1, SCD1, or SCD5 (FIGS. 3B, 6, and 7), media lacking uracil (SX-Ura, where X is glucose, raffinose, or galactose), was used for all steps of the compound profiling protocol to ensure its maintenance throughout the assay.
(§7) After yeast delivery, assay plates were incubated under humidified conditions at 30° C. for 24 to 40 h. ApoE4 rescue experiments were stopped at 24 h, aSyn experiments at 40 h, Ole1 at 24 h, and SCD1/SCD5 at 40 h. The growth of yeast was monitored by reading the ODsoo of each well using a microplate reader (Perkin Elmer EnVision™).

[2] = target: T2, SCD1 (Homo sapiens, UniProt O00767); experiment: Growth inhibition of humanized yeast strain expressing SCD1 as sole desaturase; format: cell-based
T2 construct: host or cells: S. cerevisiae ole1Δ strain (W303 pdr1Δ pdr3Δ background), plasmid pRS316 with TDH3 promoter and CYC1 terminator
T2 sequence (O00767 1-359): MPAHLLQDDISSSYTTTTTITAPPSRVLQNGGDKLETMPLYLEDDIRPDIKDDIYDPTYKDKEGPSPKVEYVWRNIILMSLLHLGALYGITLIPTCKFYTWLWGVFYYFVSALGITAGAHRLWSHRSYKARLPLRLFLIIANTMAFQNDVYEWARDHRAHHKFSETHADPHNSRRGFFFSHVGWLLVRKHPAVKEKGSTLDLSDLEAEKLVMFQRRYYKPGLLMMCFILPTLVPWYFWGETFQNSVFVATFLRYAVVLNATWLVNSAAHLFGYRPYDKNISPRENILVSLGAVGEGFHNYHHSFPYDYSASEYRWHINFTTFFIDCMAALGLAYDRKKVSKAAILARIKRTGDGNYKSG
Method: as §1, §2, §3, §4, §5, §6, §7

[3] = humanized yeast strain expressing SCD5
[4] = humanized yeast strain expressing SCD1
[5] = yeast strain expressing human SCD1 as sole desaturase, Table 8
[6] = yeast strain expressing human SCD5 as sole desaturase, Table 8

**Q.** For Cc1nn(C)c2cc(-c3noc(C4CCN(Cc5ccccc5)C(=O)C4)n3)ccc12 (stereo not drawn) [Compound 354], which IC50 [1, 3] is on record?
**A.** > 45 µM

**Q.** And the “SCD5 % Max Inhibition” value [1, 3]?
**A.** 4.29%

**Q.** And the IC50 [2, 4]?
**A.** > 45 µM

**Q.** What about the “SCD1 % Max Inhibition” value [2, 4] of the same molecule?
**A.** 30.16%

**Q.** For COC(=O)N1CCC(c2nc(-c3ccc4cnn(C(C)C)c4c3)no2)CC1 [Compound 355], which IC50 [1, 3] is on record?
**A.** > 45 µM

**Q.** What about the “SCD5 % Max Inhibition” value [1, 3] of the same molecule?
**A.** 3.68%

**Q.** And the “SCD1 % Max Inhibition” value [2, 4]?
**A.** 71.31%

**Q.** What does the source list for COC(=O)N1CCN(c2nc(-c3ccc4cnn(C(C)C)c4c3)no2)CC1 [Compound 356]?
**A.** IC50 [1, 3]: > 45 µM; SCD5 % Max Inhibition [1, 3]: 2.88%; SCD1 % Max Inhibition [2, 4]: 51.18%

**Q.** Which IC50 [1, 3] does the source give for CC(C)OC(=O)N1CCC(c2nc(-c3ccc4cnn(C(C)C)c4c3)no2)CC1 [Compound 357] here?
**A.** > 45 µM

**Q.** What about the “SCD5 % Max Inhibition” value [1, 3] of the same molecule?
**A.** 2.31%

**Q.** What about the “SCD1 % Max Inhibition” value [2, 4] of the same molecule?
**A.** 64.32%

**Q.** What does the source list for CC(C)n1ncc2ccc(-c3noc(C4CCN(C(=O)COc5ccccc5)CC4)n3)cc21 [Compound 358]?
**A.** IC50 [1, 3]: > 45 µM; SCD5 % Max Inhibition [1, 3]: 4.53%; SCD1 % Max Inhibition [2, 4]: 59.61%

**Q.** Cn1ncc2ccc(-c3noc(C4CCN(C(=O)OC(C)(C)C)CC4)n3)cc21 [Compound 359] was tested. Which IC50 [1, 3] did it give?
**A.** > 45 µM

**Q.** And the “SCD5 % Max Inhibition” value [1, 3]?
**A.** 0.81%

**Q.** And the “SCD1 % Max Inhibition” value [2, 4]?
**A.** 55.70%

**Q.** For CC(C)(C)OC(=O)N1CCC(c2nc(-c3ccc4cnn(C5CC5)c4c3)no2)CC1 [Compound 360], which IC50 [1, 3] is on record?
**A.** > 45 µM

**Q.** And the “SCD5 % Max Inhibition” value [1, 3]?
**A.** 2.38%

**Q.** And the “SCD1 % Max Inhibition” value [2, 4]?
**A.** 64.03%

**Q.** CCOC(=O)N1CCC(c2nc(-c3ccc4cnn(C(C)C)c4c3)no2)CC1 [Compound 361] was tested. Which IC50 [1, 3] did it give?
**A.** > 45 µM

**Q.** And the “SCD5 % Max Inhibition” value [1, 3]?
**A.** 0.95%

**Q.** And the “SCD1 % Max Inhibition” value [2, 4]?
**A.** 67.22%

**Q.** With CC(C)n1ncc2ccc(-c3noc(N4CCN(C(=O)c5ccccc5)CC4)n3)cc21 [Compound 362] as the molecule, how does the IC50 [1, 3] read?
**A.** > 45 µM

**Q.** What about the “SCD5 % Max Inhibition” value [1, 3] of the same molecule?
**A.** 2.26%

**Q.** What about the “SCD1 % Max Inhibition” value [2, 4] of the same molecule?
**A.** 67.00%

**Q.** Which IC50 [1, 3] does the source give for CC(C)n1ncc2ccc(-c3noc(C4CCN(C(=O)c5ccc(Cl)cc5)CC4)n3)cc21 [Compound 363] here?
**A.** > 45 µM

**Q.** What about the “SCD5 % Max Inhibition” value [1, 3] of the same molecule?
**A.** 1.99%

**Q.** What about the “SCD1 % Max Inhibition” value [2, 4] of the same molecule?
**A.** 64.44%

**Q.** With CC(C)n1ncc2ccc(-c3noc(N4CCN(C(=O)c5ccccc5Cl)CC4)n3)cc21 [Compound 364] as the molecule, how does the IC50 [1, 3] read?
**A.** > 45 µM

**Q.** And the “SCD5 % Max Inhibition” value [1, 3]?
**A.** 2.22%

**Q.** What about the “SCD1 % Max Inhibition” value [2, 4] of the same molecule?
**A.** 70.82%

**Q.** For Cc1nn(C)c2cc(-c3noc(C4CN(C(=O)OC(C)(C)C)C4)n3)ccc12 [Compound 365], which IC50 [1, 3] is on record?
**A.** > 45 µM

**Q.** What about the “SCD5 % Max Inhibition” value [1, 3] of the same molecule?
**A.** 23.74%

**Q.** And the “SCD1 % Max Inhibition” value [2, 4]?
**A.** 58.08%

**Q.** Which results are given for CC(C)n1ncc2ccc(-c3noc(N4CCN(C(=O)OC5(C)CC5)CC4)n3)cc21 [Compound 496]?
**A.** IC50 [1, 3]: 0.445 µM; IC50 [2, 4]: > 45 µM

**Q.** What does the source list for Cn1ncc2ccc(-c3noc(C4CCNCC4)n3)cc21 [Compound 500]?
**A.** IC50 [1, 3]: > 45 µM; IC50 [2, 4]: > 45 µM

**Q.** How did the IC50 ([2]; humanized yeast strain, 40 h) turn out when COC(=O)N1CCC(c2noc(-c3ccc4cnn([C@@H]5CCOC5)c4c3)n2)CC1 [Compound 876] was run?
**A.** > 45 µM

**Q.** Which IC50 ([2]; humanized yeast strain, 40 h) does the source give for COC(=O)N1CCC(c2noc(-c3ccc4cnn([C@@H]5CCOC5)c4c3)n2)CC1 [Compound 877] here?
**A.** > 45 µM

**Q.** With CC(C)(C)OC(=O)N1CCC(c2noc(-c3ccc4cnn([C@H]5CCOC5)c4c3)n2)CC1 [Compound 1201] as the molecule, how does the IC50 [2, 5] read?
**A.** 1.4 µM

**Q.** CC1(OC(=O)N2CCC(c3noc(-c4ccc5cnn([C@H]6CCOC6)c5c4)n3)CC2)CC1 [Compound 1209] was tested. Which IC50 [2, 5] did it give?
**A.** 12.6 µM

**Q.** For Cc1cc(-c2nc(C3CCN(C(=O)OC(C)(C)C)CC3)no2)cc(C2CCOC2)n1 (stereo not drawn) [Compound 1266], which IC50 [2, 5] is on record?
**A.** 31.7 µM

**Q.** With CCC(=O)N1CCC(c2noc(-c3cc(N4CCOCC4)c(F)cn3)n2)CC1 [Compound 1276] as the molecule, how does the IC50 [1, 6] read?
**A.** 4.68 µM

**Q.** CC(C)(C)OC(=O)N1CCC(c2noc(-c3ccnc(-c4ccon4)c3)n2)CC1 [Compound 1277] was tested. Which IC50 [1, 6] did it give?
**A.** 2.5 µM

**Q.** Which IC50 [1, 6] does the source give for O=C(C1CC1)N1CCC(c2noc(-c3cc(C4CCOC4)ccn3)n2)CC1 (stereo not drawn) [Compound 1278] here?
**A.** 2.73 µM

**Q.** With CCC(=O)N1CCC(c2noc(-c3cc(C4CCOC4)ccn3)n2)CC1 (stereo not drawn) [Compound 1281] as the molecule, how does the IC50 [1, 6] read?
**A.** 6.99 µM

**Q.** With CC1CN(c2cc(-c3nc(C4CCN(C(=O)OC(C)(C)C)CC4)no3)ccc2F)CC(C)O1 (stereo not drawn) [Compound 1282] as the molecule, how does the IC50 [1, 6] read?
**A.** 0.22 µM
